In US20220226260A1, “APPLICATION OF HONOKIOL AND MAGNOLOL IN PREPARATION OF MCR-1 ENZYME INHIBITOR” (priority 2019, published 2022):
Like-named read-outs stand apart in the source and are kept apart here.

What was measured:
[1] = test system: MCR-1 positive Escherichia coli (E. coli DZ2-12R); test: Chessboard MIC test, MCR-1 positive E. coli; assay type: cell-based; details: for MIC: Escherichia coli; for antibacterial effect alone: summary for the strains of Tables 1 and 2; for reduction of the MIC value of polymyxin: combination with polymyxin, MCR-1 positive Escherichia coli
Procedure: (§1) The antibacterial activities of honokiol, magnolol, polymyxin and their combination against MCR-1 producing Escherichia coli (also referred to as MCR-1 positive Escherichia coli) and Klebsiella pneumoniae are tested by chessboard method in 96-well sterile microplates, the MIC values are determined, and the fractional inhibitory concentration (FIC) indexes are calculated. Specifically, FIC=MIC (polymyxin combined)/MIC (polymyxin alone)+MIC (honokiol/magnolol combined)/MIC (honokiol/magnolol alone).

[2] = test system: MCR-1 positive Klebsiella pneumoniae (K. pneumoniae ZJ02); test: Chessboard MIC test, MCR-1 positive K. pneumoniae; assay type: cell-based; details: for MIC: Klebsiella pneumoniae; for reduction of the MIC value of polymyxin: combination with polymyxin, MCR-1 positive Klebsiella pneumoniae
Procedure: as §1

[3] = test system: MCR-1 engineering bacteria E. coli BL21(DE3) (pET28a-mcr-1); test: Chessboard MIC test, MCR-1 engineering bacteria; assay type: cell-based, Escherichia coli; details: for MIC: Escherichia coli, read-out: MIC alone; for synergistic effect with polymyxin: combination with polymyxin, strain expressing MCR-1; for FIC: combined with polymyxin B
Procedure: as §1

[4] = test system: E. coli BL21(DE3) (pET28a); test: Chessboard MIC test, engineering strain not expressing MCR-1; assay type: cell-based, Escherichia coli; details: for MIC: Escherichia coli, read-out: MIC alone; for synergistic effect with polymyxin: combination with polymyxin, strain that does not express MCR-1; for FIC: combined with polymyxin B
[5] = test system: MCR-1 positive Escherichia coli isolate; test: Time-kill curve test; assay type: cell-based; details: 1×10^5 CFUs/mL
Procedure: An overnight culture of MCR-1 positive Escherichia coli isolate is taken and adjusted to 1×10^7 colony forming units per milliliter (CFUs/mL) for use. Sterile test tubes are taken and divided into 4 groups (including blank control group, 2 μg/mL polymyxin group B group, 16 μg/mL honokiol or 32 μg/mL magnolol group, and 16 μg/mL honokiol or 32 μg/mL magnolol combined with 2 μg/mL polymyxin B group), each group is marked for 1, 3, 5 and 7 hours. 1 mL of autoclaved Lysogeny broth (LB) medium is added into each of the test tubes, and then 10 microliters (μL) of adjusted bacterial solution are added into each of the test tubes so that the concentration of bacterial solution in each of the test tubes is 1×10^5 CFUs/mL. Among them, 2 μg/mL polymyxin group B group, 16 μg/mL honokiol or 32 μg/mL magnolol group, and 16 μg/mL honokiol or 32 μg/mL magnolol combined with 2 μg/mL polymyxin B group are added with the corresponding amount of antibiotics and inhibitors respectively. Immediately after mixing, the bacterial solution of the antibiotic-free control group is coated and counted as the CFU at 0 H. After that, the bacterial solution in the corresponding test tube is taken every 1, 3, 5 and 7 hours, and the plate is coated for counting, and the time-kill curves are drawn, as shown in FIG. 1 and FIG. 2.

[6] = test system: MCR-1 positive Klebsiella pneumoniae; test: Colony colonization experiment of mouse thigh muscle infection; assay type: in vivo; details: BALB/C mice, subcutaneous, every 8 hours for three times, 36 hours
Procedure: After BALB/C mice (female, about 20 […] (g)) are restrained, MCR-1 positive Klebsiella pneumoniae suspension (2×10^7 CFUs) is injected through the inner thigh to establish a mouse thigh muscle infection model.
After intramuscular injection of MCR-1 positive Klebsiella pneumoniae into the inner thigh of mice, 5 […] (mg/kg) (50 μL) of polymyxin B dissolved in sterile ultra-pure water (dd H2O), 50 mg/kg (50 μL) honokiol or magnolol dissolved in dimethyl sulfoxide (DMSO) solution, and 50 mg/kg of honokiol or magnolol combined with polymyxin B (5 mg/kg) are injected subcutaneously, while the positive control group is subcutaneously injected with 50 μL DMSO blank solvent. All groups of mice are administered subcutaneously every 8 hours for three times. After 36 hours of administration, the mice are sacrificed, and the thigh muscles are weighed, homogenized, diluted and counted.

[7] = combined with polymyxin B, E. coli DZ2-12R
[8] = combined with polymyxin B, K. pneumoniae ZJ02
[9] = E. coli BL21(DE3) (pET28a-mcr-1)
[10] = 50 mg/kg combined with polymyxin B (5 mg/kg)
[11] = alone (honokiol or magnolol 50 mg/kg, polymyxin B 5 mg/kg)

Molecule | MIC ([1]; read-out: MIC alone) [µg/mL] | antibacterial effect alone ([1]; alone) | reduction of the MIC value of polymyxin [1] [fold] | FIC [1, 7] | MIC ([2]; read-out: MIC alone) [µg/mL] | reduction of the MIC value of polymyxin [2] [fold] | FIC [2, 8] | MIC [3] [µg/mL] | synergistic effect with polymyxin [3] | FIC [3, 9] | MIC [4] [µg/mL] | synergistic effect with polymyxin [4] | FIC ([4]; E. coli BL21(DE3) (pET28a)) | number of bacterial colonization in mouse thigh muscle [6, 10] | number of bacterial colonization in mouse thigh muscle [6, 11] | other results
C=CCc1ccc(O)c(-c2ccc(O)c(CC=C)c2)c1 [Honokiol, honokiol] | > 512 | no antibacterial effect | 8 | 0.1875 | > 512 | 16 | 0.125 | > 512 | obvious synergistic effect | 0.125 | > 512 | does not have any synergistic effect | 0.5625 | significantly reduced | no significant effect | MIC ([1]; combined with polymyxin B, E. coli DZ2-12R, read-out: MIC co-application (honokiol/magnolol)): 32 µg/mL; MIC ([2]; combined with polymyxin B, K. pneumoniae ZJ02, read-out: MIC co-application (honokiol/magnolol)): 32 µg/mL; time to completely kill MCR-1 positive Escherichia coli ([5]; 16 μg/mL honokiol combined with 2 μg/mL polymyxin B): ≤ 1 h
C=CCc1ccc(O)c(-c2cc(CC=C)ccc2O)c1 [Magnolol, magnolol] | > 512 | no antibacterial effect | 4 | 0.3125 | > 512 | 4 | 0.3125 | > 512 | obvious synergistic effect | 0.1875 | > 512 | does not have any synergistic effect | 1.0625 | significantly reduced | no significant effect | time to completely kill MCR-1 positive Escherichia coli ([5]; 32 μg/mL magnolol combined with 2 μg/mL polymyxin B): ≤ 3 h
Polymyxin B [reference compound] | – | – | – | – | – | – | – | – | – | – | – | – | – | – | no significant effect | MIC alone ([1]; alone, E. coli DZ2-12R): 8 µg/mL; MIC Polymyxin B co-application ([1]; polymyxin B combined with honokiol, E. coli DZ2-12R): 1 µg/mL; MIC Polymyxin B co-application ([1]; polymyxin B combined with magnolol, E. coli DZ2-12R): 2 µg/mL; MIC alone ([2]; alone, K. pneumoniae ZJ02): 32 µg/mL; MIC Polymyxin B co-application ([2]; polymyxin B combined with honokiol, K. pneumoniae ZJ02): 2 µg/mL; MIC Polymyxin B co-application ([2]; polymyxin B combined with magnolol, K. pneumoniae ZJ02): 8 µg/mL; MIC alone ([3]; alone, E. coli BL21(DE3) (pET28a-mcr-1)): 8 µg/mL; MIC Polymyxin B co-application ([3]; polymyxin B combined with honokiol, E. coli BL21(DE3) (pET28a-mcr-1)): 0.5 µg/mL; MIC Polymyxin B co-application ([3]; polymyxin B combined with magnolol, E. coli BL21(DE3) (pET28a-mcr-1)): 1 µg/mL; MIC alone ([4]; alone, E. coli BL21(DE3) (pET28a)): 1 µg/mL; MIC Polymyxin B co-application ([4]; polymyxin B combined with honokiol, E. coli BL21(DE3) (pET28a)): 0.5 µg/mL; MIC Polymyxin B co-application ([4]; polymyxin B combined with magnolol, E. coli BL21(DE3) (pET28a)): 1 µg/mL
